Measured values taken from US8846933B2, “N-link hydroxamic acid derivatives useful as antibacterial agents” (Pfizer Inc., priority 2009, dated 2014).

How the values were obtained:
Format in all cases: cell-based
[1] = tested on: Escherichia coli EC-1: VOGEL, mouse virulent; test: MIC determination (CLSI), strain EC-1; conditions: Escherichia coli EC-1, VOGEL, mouse virulent; unit assumed
In short: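 The mouse-virulent VOGEL isolate of E. coli, EC-1, served as test organism. Minimum inhibitory concentration was measured by CLSI dilution methodology (M7-A7; M100-S18 standards).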

[2] = tested on: Acinetobacter baumanii/haemolyticus: Multidrug-resistant clinical isolate (AB-3167); test: MIC determination (CLSI), strain AB-3167; conditions: unit assumed
Protocol: The in vitro antibacterial activity of compounds described in the Examples was evaluated by minimum inhibitory concentration (MIC) testing according to Clinical and Laboratory Standards Institute (CLSI, formerly NCCLS) guidelines. See: Clinical and Laboratory Standards Institute. Methods for Dilution Antimicrobial Susceptibility Tests for Bacteria that Grow Aerobically; Approved Standard-Seventh Edition. CLSI document M7-A7 [ISBN 1-56238-587-9]. Clinical and Laboratory Standards Institute, 940 West Valley Road, Suite 1400, Wayne, Pa. 19087-1898 USA, 2006; also Clinical and Laboratory Standards Institute. Performance Standards for Antimicrobial Susceptibility Testing; Eighteenth Informational Supplement. CLSI document M100-S18 [ISBN1-56238-653-0].Clinical and Laboratory Standards Institute.
The following bacterial strains were used in these MIC determinations:
2) Acinetobacter baumanii/haemolyticus: Multidrug-resistant clinical isolate labeled as AB-3167 in Tables 4 and 5;

[3] = tested on: Pseudomonas aeruginosa UI-18: Wild-type (PA-7); test: MIC determination (CLSI), strain PA-7; conditions: Pseudomonas aeruginosa UI-18, wild-type; unit assumed
In short: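 MIC determined by broth dilution per CLSI M7-A7 guidelines with M100-S18 interpretive standards. Test organism: wild-type Pseudomonas aeruginosa UI-18, designated PA-7.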

## C[C@@](CCn1ccc(C2=CCCCC2)cc1=O)(C(=O)NO)S(C)(=O)=O [Example 68-K, (2R)-4-(4-cyclohex-1-en-1-yl-2-oxopyridin-1(2H)-yl)-N-hydroxy-2-methyl-2-(methylsulfonyl)butanamide]
[1]
  EC-1 (MIC): 4 µg/mL
[2]
  AB-3167 (MIC): > 64 µg/mL
[3]
  PA-7 (MIC): 1 µg/mL

## CC(CCn1ccc(-c2ccc(OCCCO)cc2)cc1=O)(C(=O)NO)S(C)(=O)=O (stereo not drawn) [Example 30, N-hydroxy-4-{4-[4-(3-hydroxypropoxy)phenyl]-2-oxopyridin-1(2H)-yl}-2-methyl-2-(methylsulfonyl)butanamide]
[1]
  EC-1 (MIC): 2 µg/mL
[2]
  AB-3167 (MIC): > 64 µg/mL
[3]
  PA-7 (MIC): 4 µg/mL

## C[C@@](CCn1ccc(-c2ccc(Cl)c(F)c2F)cc1=O)(C(=O)NO)S(C)(=O)=O [Example 49, (2R)-4-[4-(4-chloro-2,3-difluorophenyl)-2-oxopyridin-1(2H)-yl]-N-hydroxy-2-methyl-2-(methylsulfonyl)butanamide]
[1]
  EC-1 (MIC): 0.125 µg/mL
[2]
  AB-3167 (MIC): > 64 µg/mL
[3]
  PA-7 (MIC): 0.25 µg/mL

## C[C@@](CCn1ccc(-c2ccc3c(c2)OCCO3)cc1=O)(C(=O)NO)S(C)(=O)=O [Example 18, (2R)-4-[4-(2,3-dihydro-1,4-benzodioxin-6-yl)-2-oxopyridin-1(2H)-yl]-N-hydroxy-2-methyl-2-(methylsulfonyl)butanamide]
[1]
  EC-1 (MIC): > 64 µg/mL
[2]
  AB-3167 (MIC): > 64 µg/mL
[3]
  PA-7 (MIC): 1 µg/mL

## COc1ccc(COc2ccc(-c3ccn(CC[C@](C)(C(=O)NO)S(C)(=O)=O)c(=O)c3)cc2)cn1 [Example 59, (2R)-N-hydroxy-4-[4-{4-[(6-methoxypyridin-3-yl)methoxy]phenyl}-2-oxopyridin-1(2H)-yl]-2-methyl-2-(methylsulfonyl)butanamide]
[1]
  EC-1 (MIC): 0.25 µg/mL
[2]
  AB-3167 (MIC): > 64 µg/mL
[3]
  PA-7 (MIC): 1 µg/mL

## C[C@@](CCn1ccc(-c2ccc([C@H]3C[C@@](C)(O)C3)cc2)cc1=O)(C(=O)NO)S(C)(=O)=O [Example 68-H, (2R)-N-hydroxy-4-{4-[4-(cis-3-hydroxy-3-methylcyclobutyl)phenyl]-2-oxopyridin-1(2H)-yl}-2-methyl-2-(methylsulfonyl)butanamide]
[1]
  EC-1 (MIC): 2 µg/mL
[2]
  AB-3167 (MIC): > 64 µg/mL
[3]
  PA-7 (MIC): 1 µg/mL

## C[C@@](CCn1ccc(-c2ccc(C3CCOCC3)cc2)cc1=O)(C(=O)NO)S(C)(=O)=O [Example 47, (2R)-N-hydroxy-2-methyl-2-(methylsulfonyl)-4-{2-oxo-4-[4-(tetrahydro-2H-pyran-4-yl)phenyl]pyridin-1(2H)-yl}butanamide]
[1]
  EC-1 (MIC): 0.5 µg/mL
[2]
  AB-3167 (MIC): > 64 µg/mL
[3]
  PA-7 (MIC): 2 µg/mL

## C[C@@](CCn1ccc(-c2cccc(Cl)c2F)cc1=O)(C(=O)NO)S(C)(=O)=O [Example 45, (2R)-4-[4-(3-chloro-2-fluorophenyl)-2-oxopyridin-1(2H)-yl]-N-hydroxy-2-methyl-2-(methylsulfonyl)butanamide]
[1]
  EC-1 (MIC): 0.25 µg/mL
[2]
  AB-3167 (MIC): > 64 µg/mL
[3]
  PA-7 (MIC): 0.5 µg/mL

## CC(CCn1ccc(OCc2ccccc2)cc1=O)(C(=O)NO)S(C)(=O)=O (stereo not drawn) [Example 51, 4-[4-(Benzyloxy)-2-oxopyridin-1(2H)-yl]-N-hydroxy-2-methyl-2-(methylsulfonyl)butanamide]
[1]
  EC-1 (MIC): 16 µg/mL
[2]
  AB-3167 (MIC): > 64 µg/mL
[3]
  PA-7 (MIC): 16 µg/mL

## C[C@@](CCn1ccc(-c2ccc(OCCC3CC(O)C3)cc2)cc1=O)(C(=O)NO)S(C)(=O)=O (stereo partly drawn) [Example 32, (2R)-N-hydroxy-4-[4-{4-[2-(3-hydroxycyclobutyl)ethoxy]phenyl}-2-oxopyridin-1(2H)-yl]-2-methyl-2-(methylsulfonyl)butanamide]
[1]
  EC-1 (MIC): 0.25 µg/mL
[2]
  AB-3167 (MIC): > 64 µg/mL
[3]
  PA-7 (MIC): 1 µg/mL

## CC(CCn1ccc(OCCc2ccccc2)cc1=O)(C(=O)NO)S(C)(=O)=O (stereo not drawn) [Example 68-U, N-hydroxy-2-methyl-2-(methylsulfonyl)-4-[2-oxo-4-(2-phenylethoxy)pyridin-1(2H)-yl]butanamide]
[1]
  EC-1 (MIC): 32 µg/mL
[2]
  AB-3167 (MIC): > 64 µg/mL
[3]
  PA-7 (MIC): 64 µg/mL

## CCC(=O)c1ccc(-c2ccn(CC[C@](C)(C(=O)NO)S(C)(=O)=O)c(=O)c2)cc1 [Example 68-G, (2R)-N-hydroxy-2-methyl-2-(methylsulfonyl)-4-[2-oxo-4-(4-propionylphenyl)pyridin-1(2H)-yl]butanamide]
[1]
  EC-1 (MIC): 0.5 µg/mL
[2]
  AB-3167 (MIC): > 64 µg/mL
[3]
  PA-7 (MIC): 1 µg/mL

## C[C@@](CCn1ccc(-c2ccc(Cl)c(Cl)c2)cc1=O)(C(=O)NO)S(C)(=O)=O [Example 68-C, (2R)-4-[4-(3,4-dichlorophenyl)-2-oxopyridin-1(2H)-yl]-N-hydroxy-2-methyl-2-(methylsulfonyl)butanamide]
[1]
  EC-1 (MIC): 0.125 µg/mL
[2]
  AB-3167 (MIC): > 64 µg/mL
[3]
  PA-7 (MIC): 0.5 µg/mL

## COc1ccc(-c2ccn(CC[C@](C)(C(=O)NO)S(C)(=O)=O)c(=O)c2)c(F)c1F [Example 44, (2R)-4-[4-(2,3-difluoro-4-methoxyphenyl)-2-oxopyridin-1(2H)-yl]-N-hydroxy-2-methyl-2-(methylsulfonyl)butanamide]
[1]
  EC-1 (MIC): 0.015 µg/mL
[2]
  AB-3167 (MIC): > 64 µg/mL
[3]
  PA-7 (MIC): 1 µg/mL

## CC1(O)CCC(Oc2ccc(-c3ccn(CC[C@](C)(C(=O)NO)S(C)(=O)=O)c(=O)c3)cc2)CC1 (stereo partly drawn) [Example 10-G, (2R)-N-hydroxy-4-[4-{4-[(4-hydroxy-4-methylcyclohexyl)oxy]phenyl}-2-oxopyridin-1(2H)-yl]-2-methyl-2-(methylsulfonyl)butanamide]
[1]
  EC-1 (MIC): 0.5 µg/mL
[2]
  AB-3167 (MIC): 64 µg/mL
[3]
  PA-7 (MIC): 2 µg/mL

## CCC(CCn1ccc(-c2ccccc2)cc1=O)(C(=O)NO)S(C)(=O)=O (stereo not drawn) [Example 54, 2-Ethyl-N-hydroxy-2-(methylsulfonyl)-4-(2-oxo-4-phenylpyridin-1(2H)-yl)butanamide]
[1]
  EC-1 (MIC): 16 µg/mL
[2]
  AB-3167 (MIC): 64 µg/mL
[3]
  PA-7 (MIC): 16 µg/mL

## CC(CCn1ccc(-c2ccc(CCCO)cc2)cc1=O)(C(=O)NO)S(C)(=O)=O (stereo not drawn) [Example 31, N-Hydroxy-4-{4-[4-(3-hydroxypropyl)phenyl]-2-oxopyridin-1(2H)-yl}-2-methyl-2-(methylsulfonyl)butanamide]
[1]
  EC-1 (MIC): 8 µg/mL
[2]
  AB-3167 (MIC): > 64 µg/mL
[3]
  PA-7 (MIC): 4 µg/mL

## C[C@@](CCn1ccc(/C=C/c2ccccc2)cc1=O)(C(=O)NO)S(C)(=O)=O [Example 2, (2R)-N-hydroxy-2-methyl-2-(methylsulfonyl)-4-{2-oxo-4-[(E)-2-phenylvinyl]pyridin-1(2H)-yl}butanamide]
[1]
  EC-1 (MIC): 0.5 µg/mL
[2]
  AB-3167 (MIC): 64 µg/mL
[3]
  PA-7 (MIC): 2 µg/mL

## CC(CCn1ccc(-c2ccc(Oc3ccccn3)cc2)cc1=O)(C(=O)NO)S(C)(=O)=O (stereo not drawn) [Example 29, N-Hydroxy-2-methyl-2-(methylsulfonyl)-4-{2-oxo-4-[4-(pyridin-2-yloxy)phenyl]pyridin-1(2H)-yl}butanamide]
[1]
  EC-1 (MIC): 0.5 µg/mL
[2]
  AB-3167 (MIC): > 64 µg/mL
[3]
  PA-7 (MIC): 4 µg/mL

## Cc1cc2cc(-c3ccn(CC[C@](C)(C(=O)NO)S(C)(=O)=O)c(=O)c3)ccc2[nH]1 [Example 19, (2R)-N-hydroxy-2-methyl-4-[4-(2-methyl-1H-indol-5-yl)-2-oxopyridin-1(2H)-yl]-2-(methylsulfonyl)butanamide]
[1]
  EC-1 (MIC): 1 µg/mL
[2]
  AB-3167 (MIC): > 64 µg/mL
[3]
  PA-7 (MIC): 2 µg/mL

## C[C@@](CCn1ccc(-c2ccc(-c3ccccc3)s2)cc1=O)(C(=O)NO)S(C)(=O)=O [Example 68-P, (2R)-N-hydroxy-2-methyl-2-(methylsulfonyl)-4-[2-oxo-4-(5-phenyl-2-thienyl)pyridin-1(2H)-yl]butanamide]
[1]
  EC-1 (MIC): 0.06 µg/mL
[2]
  AB-3167 (MIC): > 64 µg/mL
[3]
  PA-7 (MIC): 8 µg/mL

## C[C@@](CCn1ccc(-c2ccc(OC[C@H]3CC[C@@H](O)CC3)cc2F)cc1=O)(C(=O)NO)S(C)(=O)=O [Example 10-L, (2R)-4-[4-{2-fluoro-4-[(cis-4-hydroxycyclohexyl)methoxy]phenyl}-2-oxopyridin-1(2H)-yl]-N-hydroxy-2-methyl-2-(methylsulfonyl)butanamide]
[1]
  EC-1 (MIC): 0.25 µg/mL
[2]
  AB-3167 (MIC): > 64 µg/mL
[3]
  PA-7 (MIC): 1 µg/mL

## C[C@@](CCn1ccc(-c2ccc(-n3cccn3)cc2)cc1=O)(C(=O)NO)S(C)(=O)=O [Example 1, (2R)-N-hydroxy-2-methyl-2-(methylsulfonyl)-4-{2-oxo-4-[4-(1H-pyrazol-1-yl)phenyl]pyridin-1(2H)-yl}butanamide]
[1]
  EC-1 (MIC): 0.5 µg/mL
[2]
  AB-3167 (MIC): > 64 µg/mL
[3]
  PA-7 (MIC): 2 µg/mL

## Cc1cccc(-c2ccn(CC[C@](C)(C(=O)NO)S(C)(=O)=O)c(=O)c2)c1Cl [Example 68-E, (2R)-4-[4-(2-chloro-3-methylphenyl)-2-oxopyridin-1(2H)-yl]-N-hydroxy-2-methyl-2-(methylsulfonyl)butanamide]
[1]
  EC-1 (MIC): 0.25 µg/mL
[2]
  AB-3167 (MIC): 64 µg/mL
[3]
  PA-7 (MIC): 0.5 µg/mL

## C[C@@](CCn1ccc(-c2cccc(F)c2)cc1=O)(C(=O)NO)S(C)(=O)=O [Example 42, (2R)-4-[4-(3-fluorophenyl)-2-oxopyridin-1(2H)-yl]-N-hydroxy-2-methyl-2-(methylsulfonyl)butanamide]
[1]
  EC-1 (MIC): 2 µg/mL
[2]
  AB-3167 (MIC): > 64 µg/mL
[3]
  PA-7 (MIC): 1 µg/mL
